Values after ≈ are worked out from the molar mass of the structure shown. Bridge positions count the residues as written; N and C are the ends. Square brackets hold non-standard residues; d marks the D form. Peptide text beside a SMILES is read from it. * marks the point of attachment. Bip = N[C@@H](Cc1ccc(-c2ccccc2)cc1)C(=O)O; dBip = N[C@H](Cc1ccc(-c2ccccc2)cc1)C(=O)O; Gly(octyl) = CCCCCCCC[C@H](N)C(=O)O; Octanoyl = CCCCCCCC(=O)*; Dab = NCC[C@H](N)C(=O)O
Assays:
[1] = tested on: HepG2; conditions: CC50 HepG2 (µM)
[2] = tested on: K. pneumoniae CI 138-16357-20362, PmxR; conditions: MIC K. pneumoniae CI 138-16357-20362, PmxR (µg/mL)
[3] = tested on: A. baumannii CI Ptyela 100734512:2, PmxR; conditions: MIC A. baumannii CI Ptyela 100734512:2, PmxR (µg/mL)
[4] = tested on: K. pneumoniae CI Koprana 100650661:1, PmxR; conditions: MIC K. pneumoniae CI Koprana 100650661:1, PmxR (µg/mL)
[5] = tested on: P. aeruginosa FADDI-PA070, PmxR; conditions: MIC P. aeruginosa FADDI-PA070, PmxR (µg/mL)
[6] = tested on: P. aeruginosa PA9704, PmxR; conditions: MIC P. aeruginosa PA9704, PmxR (µg/mL)
[7] = tested on: S. aureus ATCC 25923, MSSA; conditions: MIC S. aureus ATCC 25923, MSSA (µg/mL)
[8] = tested on: K. pneumoniae CI 138-16357-20362, PmxR; test: microbe, parasite or virus in culture; type: cell-based, Klebsiella pneumoniae; conditions: carbapenem & polymyxin resistant clinical isolate; MHB, 5 × 10^5 CFU/mL, 18 h at 37 °C
Method: (§1) Bacteria were either obtained from American Type Culture Collection (ATCC; Manassas, VA, USA) or independent academic clinical isolate collections, as listed in Table S2. Bacteria were cultured in nutrient broth (NB; Bacto Laboratories, catalog no. 234000) or Muller Hinton broth (MHB; Bacto Laboratories, catalog no. 211443) at 37 °C overnight with shaking (∼180 rpm). A sample of each culture was then diluted 50-fold in fresh MHB and incubated at 37 °C for 1.5–3 h with shaking (∼180 rpm). Compound stock solutions were prepared as 0.64 or 2.56 mg/mL in water. The compounds, at twice the final desired concentration, were serially diluted 2-fold across the wells of 96-well plates (Polystyrene, Corning, catalogue No. 3370). Mid log phase bacterial cultures (after 1.5–3 h incubation) were diluted to a final concentration of 5 × 10^5 colony forming units (CFU)/mL, and 50 μL was added to each well giving a final compound concentration range of 32 μg/mL to 0.015 μg/mL (128–0.06 μg/mL for colistin and polymyxin B against the polymyxin resistant clinical isolates). MICs were determined visually after 18 h of incubation at 37 °C, with the MIC defined as the lowest compound concentration at which no bacterial growth was visible.
(§2) Table S2. Bacterial strains used for Minimum Inhibitory Concentration (MIC) […]
(§3) Organism Strain Strain description Strain Source
(§4) Escherichia coli ATCC 25922 FDA strain Seattle 1946 ATCC
(§5) Klebsiella pneumoniae ATCC 13883 Control strain ATCC
(§6) Klebsiella pneumoniae ATCC 700603 Multi-drug resistant ATCC
(§7) Klebsiella pneumoniae BAA-2146 Metallo-beta-lactamase- ATCC
(§8) Acinetobacter baumannii ATCC 19606 Type strain ATCC
(§9) Pseudomonas aeruginosa ATCC 27853 Type strain ATCC
(§10) Pseudomonas aeruginosa FADDI-PA070 Clinical isolate, Nation and Li labs, polymyxin resistant Monash University
(§11) Clinical isolate, Wang Hengzhuang, Pseudomonas aeruginosa PA9704 polymyxin resistant University Hospital of […]
(§12) Ptyela Clinical isolate, Ilias Karaiskos and Acinetobacter baumannii Carbapenem & Helen Giamarellou
(§13) Clinical isolate, Medicine, Hygeia
(§14) Klebsiella pneumoniae Koprana Carbapenem, & General Hospital, […]
(§15) Clinical isolate, (Instituto Dante […]
(§16) polymyxin resistant Cardiologia, São […]

[9] = tested on: K. pneumoniae CI Koprana 100650661:1, PmxR; test: microbe, parasite or virus in culture; type: cell-based, Klebsiella pneumoniae; conditions: carbapenem & polymyxin resistant clinical isolate; MHB, 5 × 10^5 CFU/mL, 18 h at 37 °C
Method: as §1, §2, §3, §4, §5, §6, §7, §8, §9, §10, §11, §12, §13, §14, §15, §16

How did the CC50 [1] turn out when `CCCCCCCC(=O)N[C@@H](CCN)C(=O)N[C@H](C(=O)N[C@@H](CCN)C(=O)N[C@H]1CCNC(=O)[C@H]([C@@H](C)O)NC(=O)[C@H](CCN)NC(=O)[C@H](CCN)NC(=O)[C@H](CC(C)C)NC(=O)[C@@H](Cc2ccc(-c3ccccc3)cc2)NC(=O)[C@H](CCN)NC1=O)[C@@H](C)O` (Octanoyl-[Dab]T[Dab][Dab][Dab][dBip]L[Dab][Dab]T; lactam 4-C) was run?
Its CC50 is 119 µM.

What does the source list for `CCCCCCCC(=O)N[C@@H](CCN)C(=O)N[C@H](C(=O)N[C@@H](CCN)C(=O)N[C@H]1CCNC(=O)[C@H]([C@@H](C)O)NC(=O)[C@H](CCN)NC(=O)[C@H](CCN)NC(=O)[C@H](Cc2ccc(-c3ccccc3)cc2)NC(=O)[C@@H](Cc2ccccc2)NC(=O)[C@H](CCN)NC1=O)[C@@H](C)O` (Octanoyl-[Dab]T[Dab][Dab][Dab][dF][Bip][Dab][Dab]T; lactam 4-C)?
MIC [2]: > 32 µg/mL; CC50 [1]: 117 µM

`CCCCCCCC[C@@H]1NC(=O)[C@@H](Cc2ccccc2)NC(=O)[C@H](CCN)NC(=O)[C@@H](NC(=O)[C@H](CCN)NC(=O)[C@@H](NC(=O)[C@H](CCN)NC(=O)CCCCCCC)[C@@H](C)O)CCNC(=O)[C@H]([C@@H](C)O)NC(=O)[C@H](CCN)NC(=O)[C@H](CCN)NC1=O` (Octanoyl-[Dab]T[Dab][Dab][Dab][dF][Gly(octyl)][Dab][Dab]T; lactam 4-C) was tested. Which MIC [3] did it give?
Its MIC is 8 µg/mL (≈ 6.42 µM).

And the MIC [2]?
Its MIC is 32 µg/mL (≈ 25.7 µM).

And the MIC [4]?
The MIC was 32 µg/mL (≈ 25.7 µM).

What about the MIC [5] of the same compound?
Its MIC is 16 µg/mL (≈ 12.8 µM).

What about the MIC [6] of the same compound?
Its MIC is 8 µg/mL (≈ 6.42 µM).

What about the MIC [7] of the same compound?
Its MIC is 8 µg/mL (≈ 6.42 µM).

And the CC50 [1]?
The CC50 was 116 µM.

`CCCCCCCC(=O)N[C@H](C(=O)N[C@@H](CCN)C(=O)N[C@H]1CCNC(=O)[C@H]([C@@H](C)O)NC(=O)[C@H](CCN)NC(=O)[C@H](CCN)NC(=O)[C@H](CC(C)C)NC(=O)[C@@H](Cc2ccccc2)NC(=O)[C@H](CCN)NC1=O)[C@@H](C)O` [Compound 12] (Octanoyl-T[Dab][Dab][Dab][dF]L[Dab][Dab]T; lactam 3-C) was tested. Which MIC [3] did it give?
Its MIC is > 32 µg/mL.

What about the MIC [2] of the same compound?
Its MIC is > 32 µg/mL.

And the MIC [4]?
The MIC was > 32 µg/mL.

What about the MIC [5] of the same compound?
The MIC was > 32 µg/mL.

And the MIC [6]?
The MIC was > 32 µg/mL.

What about the MIC [7] of the same compound?
Its MIC is > 32 µg/mL.

And the CC50 [1]?
Its CC50 is > 300 µM.

What about the “MIC K. pneumoniae CI 138-16357-20362, PmxR” value [8] of the same compound?
Its value is >32 µg/mL.

And the “MIC K. pneumoniae CI Koprana 100650661:1, PmxR” value [9]?
The value was >32 µg/mL.

For `CCCCCCCC(=O)N[C@@H](CCN)C(=O)N[C@H](C(=O)N[C@@H](CCN)C(=O)N[C@H]1CCNC(=O)[C@H]([C@@H](C)O)NC(=O)[C@H](CCNC(=O)[C@@H](N)CCCNC(=N)N)NC(=O)[C@H](CCN)NC(=O)[C@H](CC(C)C)NC(=O)[C@@H](Cc2ccccc2)NC(=O)[C@H](CCN)NC1=O)[C@@H](C)O` [Compound 18] (Octanoyl-[Dab]T[Dab][Dab][Dab][dF]L[Dab][Dab](Arg)T; lactam 4-C), which MIC [3] is on record?
The MIC was > 32 µg/mL.

What about the MIC [2] of the same compound?
The MIC was > 32 µg/mL.

What about the MIC [4] of the same compound?
The MIC was > 32 µg/mL.

What about the MIC [5] of the same compound?
Its MIC is > 32 µg/mL.

And the MIC [6]?
The MIC was > 32 µg/mL.

What about the MIC [7] of the same compound?
Its MIC is > 32 µg/mL.

And the CC50 [1]?
Its CC50 is > 300 µM.

What about the “MIC K. pneumoniae CI 138-16357-20362, PmxR” value [8] of the same compound?
The value was >32 µg/mL.

And the “MIC K. pneumoniae CI Koprana 100650661:1, PmxR” value [9]?
Its value is >32 µg/mL.

How did the MIC [3] turn out when `CCCCCCCC(=O)N[C@@H](CCN)C(=O)N[C@H](C(=O)N[C@@H](CCN)C(=O)N[C@H]1CCNC(=O)[C@H]([C@@H](C)O)NC(=O)[C@H](CCNC(=O)[C@@H](N)CCC(=O)O)NC(=O)[C@H](CCN)NC(=O)[C@H](CC(C)C)NC(=O)[C@@H](Cc2ccccc2)NC(=O)[C@H](CCN)NC1=O)[C@@H](C)O` [Compound 19] (Octanoyl-[Dab]T[Dab][Dab][Dab][dF]L[Dab][Dab](Glu)T; lactam 4-C) was run?
The MIC was > 32 µg/mL.

What about the MIC [2] of the same compound?
The MIC was > 32 µg/mL.

And the MIC [4]?
The MIC was > 32 µg/mL.

And the MIC [5]?
The MIC was > 32 µg/mL.

And the MIC [6]?
The MIC was > 32 µg/mL.

And the MIC [7]?
Its MIC is > 32 µg/mL.

And the CC50 [1]?
Its CC50 is > 300 µM.

What about the “MIC K. pneumoniae CI 138-16357-20362, PmxR” value [8] of the same compound?
The value was >32 µg/mL.

What about the “MIC K. pneumoniae CI Koprana 100650661:1, PmxR” value [9] of the same compound?
Its value is >32 µg/mL.
